Measurements reported in ChEMBL document CHEMBL3739288, “Dimeric Octaketide Spiroketals from the Jellyfish-Derived Fungus Paecilomyces variotii J08NF-1” (2015).
Converted amounts (≈) assume the structure as drawn.

Assays:
Type in all cases: functional
Vibrio ichthyoenteri = experiment: Antibacterial activity against Vibrio ichthyoenteri after 24 hrs by broth microdilution method
Staphylococcus aureus = experiment: Antibacterial activity against Staphylococcus aureus SG511 after 24 hrs by broth microdilution method; details: SG511, 24 h
Streptococcus iniae = experiment: Antibacterial activity against Streptococcus iniae after 24 hrs by broth microdilution method

SMILES | MIC (Vibrio ichthyoenteri) | MIC (Staphylococcus aureus) | MIC (Streptococcus iniae)
CCCCCCCCC(=O)c1cccc2c1C=C(CCCCCCC)C1(OCc3c(O)cccc31)O2 (racemic) | 40 mg/L (≈ 81.5 µM) | > 40 mg/L | > 40 mg/L
CN(C)[C@@H]1C(O)=C(C(N)=O)C(=O)[C@@]2(O)C(O)=C3C(=O)c4c(O)cccc4[C@@](C)(O)[C@H]3C[C@@H]12 [TETRACYCLINE] | – | 0.16 mg/L (≈ 0.36 µM) | –
CN(C)[C@@H]1C(O)=C(C(N)=O)C(=O)[C@@]2(O)C(=O)C3=C(O)c4c(O)cccc4[C@@](C)(O)[C@H]3[C@H](O)[C@@H]12 | 0.16 mg/L (≈ 0.347 µM) | – | 2.5 mg/L (≈ 5.43 µM)

More lines, now with the values ahead:

MIC (Vibrio ichthyoenteri) | MIC (Staphylococcus aureus) | MIC (Streptococcus iniae) | SMILES
> 40 mg/L | > 40 mg/L | > 40 mg/L | CCCCCCCCC(=O)c1cccc2c1C=C(CCCCCCC)[C@@]1(OCc3c(O)cccc31)O2
> 40 mg/L | > 40 mg/L | > 40 mg/L | CCCCCCCCC(=O)c1cccc2c1C=C(CCCCCCC)[C@]1(OCc3c(O)cccc31)O2
